Results reported in patent US20080039455A1, “PYRAZOLOPYRIMIDINES AND SALTS THEREOF, PHARMACEUTICAL COMPOSITIONS COMPRISING SAME, METHODS OF PREPARING SAME AND USES OF SAME” (priority 2006, published 2008).

Biological target: T1, human recombinant ALK1 (GST fused to ALK1 intracellular domain [His142-Gln503]) (Homo sapiens, UniProt P37023)
T1 construct: GST fused to ALK1 intracellular domain [His142-Gln503]; made in house
T1 sequence (P37023 142-503): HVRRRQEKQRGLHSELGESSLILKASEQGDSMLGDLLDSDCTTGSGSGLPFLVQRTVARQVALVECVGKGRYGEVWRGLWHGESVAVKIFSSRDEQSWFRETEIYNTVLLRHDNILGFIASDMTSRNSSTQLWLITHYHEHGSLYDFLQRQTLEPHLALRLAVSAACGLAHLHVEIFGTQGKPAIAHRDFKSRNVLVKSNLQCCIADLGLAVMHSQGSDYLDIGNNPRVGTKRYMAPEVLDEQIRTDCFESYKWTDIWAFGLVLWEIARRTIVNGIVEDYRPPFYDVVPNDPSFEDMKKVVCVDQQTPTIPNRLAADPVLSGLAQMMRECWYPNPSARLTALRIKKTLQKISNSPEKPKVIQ
Experiment: ALK1-Kinase Flashplate-Assay
Type: biochemical
Settings: 0.5 μM ATP, biotinylated α-casein substrate; read-out: Assay 1 (ALK1-Kinase Flashplate-Assay IC50 class)
From the text: Biological Assay 1: ALK1-Kinase Flashplate-Assay
ALK1 phosphorylates serine/threonine residues of the biotinylated substrate bovine α-casein in the presence of [γ-^33P]ATP. Detection of the radiolabeled phosphorylated product is achieved by binding to streptavidine-coated Flashplates. The biotin moieties of biotinylated casein bind with high affinity to the streptavidine. The radiolabeled biotinylated casein produced by the ALK1 kinase reaction is able to generate a […] signal when strepatavidine-mediated binding occurs to the scintillant-containing surface of the Flashplates due to the close proximity of the radiolabel and the scintillant. […] The signals obtained are therefore indicative of the ALK1 kinase activity. Measurement is performed in a Perkin-Elmer TopCount or Perkin-Elmer ViewLux instrument.
Enzyme: Purified human recombinant ALK1 (GST fused to ALK1 intracellular domain [His142-Gln503]) produced in-house, aliquots stored at −80° C.;
Diluted enzyme working solution: 2.5 ng/μl ALK1 (in assay buffer) freshly prepared and chilled on ice until use.
Substrate: biotinylated bovine α-casein. Unbiotinylated casein obtained from Sigma was biotinylated by standard procedures using N-hydroxysuccinimide (NHS) ester of biotin.
Substrate working solution: 0.83 μM ATP, 1.67 μM biotinylated a-casein, 7.4 nCi [γ-^33P]ATP/μl in assay buffer
Assay plates: 384-well plates, small volume, white, Greiner (# 784075)
Flashplates: Streptavidin-coated Flashplates, Perkin Elmer (384-well # SPM410A)
Assay buffer: 50 mM Tris/HCl pH 8.0, 1 mM MnCl2, 1 mM DTT, 0.01% NP40, 0.5× Complete EDTA-free
Stop solution: 33.3 μM ATP, 33.3 mM EDTA, 0.07% Triton X-100 in PBS
Saturating buffer for Flashplates: 100 μM ATP, 0.2% Triton X-100 in PBS
Sealing tape: Greiner (# 676080)
Protocol for small volume 5 μl assay (all steps are performed at 20° C., pipetted with CyBi-Well and Multidrop Micro): • 1. 50 nl or 250 nl compound in 100% DMSO • 2. addition of 3 μl substrate working solution with CyBi-Well pipettor • 3. addition of 2 μl enzyme working solution with Multidrop Micro incubation for 60 min at room temperature • 4. addition of 15 μl Stop solution with CyBi-Well pipettor • 5. transfer of 18 μl assay mixture to Flashplates** with CyBi-Well pipettor incubation for at least 3 h at room temperature or over night at 4° C. to allow binding to the streptavidine-coated Flashplates • 6. washing the Flashplates 3 times with 50 μl PBS without Ca++ and Mg++ • 7. sealing with sealing tape • 8. Measurement in Topcount (60 sec/well) **Saturation of Flashplates: The Flashplates are preincubated for at least 1 hour with 50 μl saturating buffer. Remove 18 μl from the 50 μl and transfer 18 μl of the assay mixture to the Flashplate.
Final concentrations, calculated for 5 μl reaction volume: ALK1 5 ng/well; 1 μM biotinylated α-casein; 0.5 μM ATP; 22 nCi/well [γ-^33P]ATP; 1 mM MnCl2; 1 mM DTT; 50 mM Tris-HCl; pH 8.0; 0.01% NP40; 0.5× Complete EDTA-free; 1% or 5% DMSO.
The data were normalised (enzyme reaction without inhibitor=0% inhibition, enzyme reaction in the presence of 10 mM EDTA=100% inhibition) and IC50 values were calculated by a 4 parameter fit using an in-house software.

SMILES: CS(=O)(=O)Nc1cccc(-c2cnn3ccc(Nc4ccc(N5CCOCC5)cc4)nc23)c1 [Example 447, N-{3-[5-(4-Morpholin-4-yl-phenylamino)-pyrazolo[1,5-a]pyrimidin-3-yl]-phenyl}-methanesulfonamide]
- IC50: < 1 µM

SMILES: COc1ccc(Nc2ccn3ncc(-c4cccc(NS(C)(=O)=O)c4)c3n2)cn1 [Example 197, N-{3-[5-(6-Methoxy-pyridin-3-ylamino)-pyrazolo[1,5-a]pyrimidin-3-yl]-phenyl}-methanesulfonamide]
- IC50: 1 to 10 µM

SMILES: COc1cncc(-c2cnn3ccc(Nc4ccccc4)nc23)c1 [Example 251, [3-(5-Methoxy-pyridin-3-yl)-pyrazolo[1,5-a]pyrimidin-5-yl]-phenyl-amine]
- IC50: 1 to 10 µM

SMILES: NC(=O)c1cccc(-c2cnn3ccc(Nc4ccc(N5CCOCC5)cc4)nc23)c1 [Example 232, 3-[5-(4-Morpholin-4-yl-phenylamino)-pyrazolo[1,5-a]pyrimidin-3-yl]-benzamide]
- IC50: < 1 µM

SMILES: CC(=O)c1cccc(-c2cnn3ccc(Nc4ccc(NS(=O)(=O)c5ccc(C)cc5)cc4)nc23)c1 [Example 201, N-{4-[3-(3-Acetyl-phenyl)-pyrazolo[1,5-a]pyrimidin-5-ylamino]-phenyl}-4-methyl-benzenesulfonamide]
- IC50: 1 to 10 µM

SMILES: c1csc(-c2cnn3ccc(Nc4ccc(N5CCOCC5)cc4)nc23)c1 [Example 234, (4-Morpholin-4-yl-phenyl)-(3-thiophen-2-yl-pyrazolo[1,5-a]pyrimidin-5-yl)-amine]
- IC50: 1 to 10 µM

SMILES: Oc1ccc(-c2cnn3ccc(NCc4cccnc4)nc23)cc1 [Example 293, 4-{5-[(Pyridin-3-ylmethyl)-amino]-pyrazolo[1,5-a]pyrimidin-3-yl}-phenol]
- IC50: 1 to 10 µM

SMILES: OCCNc1ccn2ncc(-c3cccc(OC(F)(F)F)c3)c2n1 [Example 122, 2-[3-(3-Trifluoromethoxy-phenyl)-pyrazolo[1,5-a]pyrimidin-5-ylamino]-ethanol]
- IC50: 1 to 10 µM

SMILES: Oc1ccc(-c2cnn3ccc(Nc4ccc5[nH]ccc5c4)nc23)cc1 [Example 18, 4-[5-(1H-Indol-5-ylamino)-pyrazolo[1,5-a]pyrimidin-3-yl]-phenol]
- IC50: 1 to 10 µM

SMILES: CC(C)c1ccc(Nc2ccn3ncc(-c4ccncc4)c3n2)cc1 [Example 36, (4-Isopropyl-phenyl)-(3-pyridin-4-yl-pyrazolo[1,5-a]pyrimidin-5-yl)-amine]
- IC50: 1 to 10 µM

SMILES: COc1ccc(Nc2ccn3ncc(-c4cc(OC)c(OC)c(OC)c4)c3n2)cn1 [Example 90, (6-Methoxy-pyridin-3-yl)-[3-(3,4,5-trimethoxy-phenyl)-pyrazolo[1,5-a]pyrimidin-5-yl]-amine]
- IC50: < 1 µM

SMILES: CCN(CC)CCCNc1ccn2ncc(-c3cccc(Cl)c3)c2n1 [Example 486, N′-[3-(3-chloro-phenyl)-pyrazolo[1,5-a]pyrimidin-5-yl]-N,N-diethyl-propane-1,3-diamine]
- IC50: 1 to 10 µM

SMILES: OC1CCC(Nc2ccn3ncc(-c4cccnc4)c3n2)CC1 (stereo not shown) [Example 67, 4-(3-Pyridin-3-yl-pyrazolo[1,5-a]pyrimidin-5-ylamino)-cyclohexanol]
- IC50: 1 to 10 µM

SMILES: Clc1cccc(-c2cnn3ccc(NCc4ccncc4)nc23)c1 [Example 395, [3-(3-Chloro-phenyl)-pyrazolo[1,5-a]pyrimidin-5-yl]-pyridin-4-ylmethyl-amine]
- IC50: < 1 µM

SMILES: CC(=O)c1cccc(-c2cnn3ccc(Nc4ccc(C(C)C)cc4)nc23)c1 [Example 266, 1-{3-[5-(4-Isopropyl-phenylamino)-pyrazolo[1,5-a]pyrimidin-3-yl]-phenyl}-ethanone]
- IC50: 1 to 10 µM

SMILES: CC(=O)Nc1cccc(-c2cnn3ccc(Nc4ccc5[nH]ccc5c4)nc23)c1 [Example 19, N-{3-[5-(1H-Indol-5-ylamino)-pyrazolo[1,5-a]pyrimidin-3-yl]-phenyl}-acetamide]
- IC50: < 1 µM

SMILES: COc1ccc(Nc2ccn3ncc(-c4cccc(N)c4)c3n2)cn1 [Example 337, [3-(3-Amino-phenyl)-pyrazolo[1,5-a]pyrimidin-5-yl]-(6-methoxy-pyridin-3-yl)-amine]
- IC50: 1 to 10 µM

SMILES: c1cc(CNc2ccn3ncc(-c4cn[nH]c4)c3n2)ccn1 [Example 218, [3-(1H-Pyrazol-4-yl)-pyrazolo[1,5-a]pyrimidin-5-yl]-pyridin-4-ylmethyl-amine]
- IC50: 1 to 10 µM

SMILES: COc1cncc(-c2cnn3ccc(Nc4ccc(C)c(NS(C)(=O)=O)c4)nc23)c1 [Example 107, N-{5-[3-(5-Methoxy-pyridin-3-yl)-pyrazolo[1,5-a]pyrimidin-5-ylamino]-2-methyl-phenyl}-methanesulfonamide]
- IC50: 1 to 10 µM

SMILES: OCCNc1ccn2ncc(-c3ccc(Cl)cc3)c2n1 [Example 121, 2-[3-(4-Chloro-phenyl)-pyrazolo[1,5-a]pyrimidin-5-ylamino]-ethanol]
- IC50: 1 to 10 µM

SMILES: CC(C)c1ccc(Nc2ccn3ncc(-c4cccc(C(=O)NCCN(C)C)c4)c3n2)cc1 [Example 1, N-(2-dimethylamino-ethyl)-3-[5-(4-isopropyl-phenylamino)-pyrazolo[1,5-a]pyrimidin-3-yl]-benzamide]
- IC50: < 1 µM

SMILES: Oc1cccc(-c2cnn3ccc(Nc4ccccc4)nc23)c1 [Example 271, 3-(5-Phenylamino-pyrazolo[1,5-a]pyrimidin-3-yl)-phenol]
- IC50: 1 to 10 µM

SMILES: Cn1cc(-c2cnn3ccc(Nc4ccc(O)cc4)nc23)cn1 [Example 194, 4-[3-(1-Methyl-1H-pyrazol-4-yl)-pyrazolo[1,5-a]pyrimidin-5-ylamino]-phenol]
- IC50: 1 to 10 µM

SMILES: Fc1ccc(-c2cnn3ccc(NCc4ccncc4)nc23)cc1 [Example 398, [3-(4-Fluoro-phenyl)-pyrazolo[1,5-a]pyrimidin-5-yl]-pyridin-4-ylmethyl-amine]
- IC50: < 1 µM

SMILES: Cn1cc(-c2cnn3ccc(Nc4ccccc4)nc23)cn1 [Example 244, [3-(1-Methyl-1H-pyrazol-4-yl)-pyrazolo[1,5-a]pyrimidin-5-yl]-phenyl-amine]
- IC50: < 1 µM

SMILES: CN(C)CCNC(=O)c1cccc(-c2cnn3ccc(Nc4ccc(Oc5ccccc5)cc4)nc23)c1 [Example 329, N-(2-Dimethylamino-ethyl)-3-[5-(4-phenoxy-phenylamino)-pyrazolo[1,5-a]pyrimidin-3-yl]-benzamide]
- IC50: 1 to 10 µM

SMILES: Nc1cccc(-c2cnn3ccc(Nc4ccc(O)cc4)nc23)c1 [Example 338, 4-[3-(3-Amino-phenyl)-pyrazolo[1,5-a]pyrimidin-5-ylamino]-phenol]
- IC50: 1 to 10 µM

SMILES: COc1ccc(Nc2ccn3ncc(-c4cccc(C(C)=O)c4)c3n2)cn1 [Example 437, 1-{3-[5-(6-Methoxy-pyridin-3-ylamino)-pyrazolo[1,5-a]pyrimidin-3-yl]-phenyl}-ethanone]
- IC50: 1 to 10 µM

SMILES: COc1cc(Nc2ccn3ncc(-c4cccc(C(C)=O)c4)c3n2)cc(OC)c1OC [Example 179, 1-{3-[5-(3,4,5-Trimethoxy-phenylamino)-pyrazolo[1,5-a]pyrimidin-3-yl]-phenyl}-ethanone]
- IC50: 1 to 10 µM

SMILES: COc1cc(-c2cnn3ccc(NCCN(C)C)nc23)cc(OC)c1OC [Example 134, N,N-Dimethyl-N-[3-(3,4,5-trimethoxy-phenyl)-pyrazolo[1,5-a]pyrimidin-5-yl]-ethane-1,2-diamine]
- IC50: 1 to 10 µM

SMILES: COc1cc(-c2cnn3ccc(NCCO)nc23)cc(OC)c1OC [Example 120, 2-[3-(3,4,5-Trimethoxy-phenyl)-pyrazolo[1,5-a]pyrimidin-5-ylamino]-ethanol]
- IC50: < 1 µM
